# Assay: Bidirectional permeability measurements in MDCK-MDR1 monolayers
# Format: in vitro ADME, canine
# Conditions: dog, MDCK-MDR1, 2 h
# Description: MDCK-MDR1 cells at passage 17 were cultured in DMEM supplemented with 10% FBS, 1% glutamine, 100 U/mL penicillin/streptomycin, 1% NEAA, and 1 mmol/L sodium pyruvate. The cells were incubated overnight at 37°C with 5% CO2 and a relative humidity of 90%. Once the cells reached approximately 80% confluence, they were treated with a 0.25% trypsin/EDTA solution to dissociate the cells. Subsequently, the cells were seeded at a density of 5 × 10^5 cells/cm^2 in Millicell-96 well plates (Millipore, Burlington, USA). Prior to conducting the experiments, the integrity of the cell monolayer was confirmed by measuring transepithelial electrical resistance (TEER) using a Millicell ERS® meter (Millipore, Burlington, USA). A TEER value greater than 400 Ω cm^2 was required to ensure the formation and preservation of tight junctions.
# Cell monolayers were preincubated with HBSS for 15 min at 37°C. To measure the A→B (apical side to basolateral side of monolayer) transporter, 400 μL of ammoxetine solution was added to the A-side (donor chamber), and 1,200 μL of HBSS solution was added to the B-side (receiver chamber). The B→A transporter was evaluated by adding 1,200 μL of ammoxetine solution to the B-side (donor chamber) and 400 μL of HBSS solution to the A-side (receiver chamber). At 0 h, 50 μL of the solution was taken from the donor chamber, and aliquots of 50 μL were taken from the receiver chamber at 15, 30, 45, 60, 90, and 120-min time intervals. The collected aliquots were immediately replaced with equal volumes of fresh blank HBSS. Ammoxetine transport was studied at three concentrations: 0.2, 1, and 5 μg/mL, with each concentration evaluated in triplicate. […] Ammoxetine samples collected from the receiver chambers at different time points were mixed with 150 μL of acetonitrile/methanol (1:1, v/v) solution containing 50 ng/mL L-phencynonate (IS). The mixtures were then vortexed for 1 min and centrifuged for 10 min at 13,800×g. The supernatants were analyzed using an LC-MS-MS method.
# The apparent permeability coefficient ( Papp , cm/s) values for ammoxetine were determined using Equation 1: Papp=dQ/dt/A×C0 (1)
# Here, dQ/dt represents the amount of drug transported to the receiver chamber within a specific time period, A is the surface area of the cell monolayer (=0.33 cm^2), and C0 is the initial concentration of ammoxetine.
# In general, the involvement of a P-gp-mediated efflux mechanism was indicated if the efflux ratio ( ER ) value exceeded 1.5 ([Langthaler et al., 2024]). […]
smiles,measurement,setting,value
CNCC[C@H](Oc1cccc2c1OCO2)c1cccs1 [ammoxetine],"Papp A→B at 2 h, 0.2 μg/mL",0.2 μg/mL,15.8 ± 2.83 ×10⁻⁶ cm/s
same,"Papp B→A at 2 h, 0.2 μg/mL",0.2 μg/mL,26.5 ± 5.3 ×10⁻⁶ cm/s
same,"Papp A→B at 2 h, 1 μg/mL",1 μg/mL,6.61 ± 0.555 ×10⁻⁶ cm/s
same,"Papp B→A at 2 h, 1 μg/mL",1 μg/mL,11.5 ± 2.93 ×10⁻⁶ cm/s
same,"Papp A→B at 2 h, 5 μg/mL",5 μg/mL,13.2 ± 1.26 ×10⁻⁶ cm/s
same,"Papp B→A at 2 h, 5 μg/mL",5 μg/mL,25.2 ± 3.49 ×10⁻⁶ cm/s

# Source: PMC11579541, “In vitro, in vivo, and in silico approaches for evaluating the preclinical DMPK profiles of ammoxetine, a novel chiral serotonin and norepinephrine reuptake inhibitor” (Frontiers in Pharmacology, 2024)
